Results from patent US7608281B2, “Composition and use of RAR antagonists for promoting chondrogenesis” (T. Michael Underhill, priority 1999, dated 2009).
Entries after “also recorded” stand apart in the source; their conditions may differ.

T1: RARα (Homo sapiens, UniProt P10276)
T1 construct: expressed in transfected cells; host or cells: P19 embryonal carcinoma cells
T1 sequence (P10276 1-462): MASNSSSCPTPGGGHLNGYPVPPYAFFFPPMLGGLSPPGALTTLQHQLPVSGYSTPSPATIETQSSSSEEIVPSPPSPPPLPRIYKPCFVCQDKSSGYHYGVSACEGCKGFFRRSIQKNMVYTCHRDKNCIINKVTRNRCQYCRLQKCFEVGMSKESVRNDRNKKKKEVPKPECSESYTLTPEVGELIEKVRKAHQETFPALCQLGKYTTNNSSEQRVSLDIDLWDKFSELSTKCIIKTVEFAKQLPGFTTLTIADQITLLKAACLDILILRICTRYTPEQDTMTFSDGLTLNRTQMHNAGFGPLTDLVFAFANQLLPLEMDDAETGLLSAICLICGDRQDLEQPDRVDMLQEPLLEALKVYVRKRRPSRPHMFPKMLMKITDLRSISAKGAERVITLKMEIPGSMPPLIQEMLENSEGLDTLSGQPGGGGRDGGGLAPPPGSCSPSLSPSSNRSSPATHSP

T2: RARβ (Homo sapiens, UniProt P10826)
T2 construct: expressed in transfected cells; host or cells: P19 embryonal carcinoma cells
T2 sequence (P10826 1-455): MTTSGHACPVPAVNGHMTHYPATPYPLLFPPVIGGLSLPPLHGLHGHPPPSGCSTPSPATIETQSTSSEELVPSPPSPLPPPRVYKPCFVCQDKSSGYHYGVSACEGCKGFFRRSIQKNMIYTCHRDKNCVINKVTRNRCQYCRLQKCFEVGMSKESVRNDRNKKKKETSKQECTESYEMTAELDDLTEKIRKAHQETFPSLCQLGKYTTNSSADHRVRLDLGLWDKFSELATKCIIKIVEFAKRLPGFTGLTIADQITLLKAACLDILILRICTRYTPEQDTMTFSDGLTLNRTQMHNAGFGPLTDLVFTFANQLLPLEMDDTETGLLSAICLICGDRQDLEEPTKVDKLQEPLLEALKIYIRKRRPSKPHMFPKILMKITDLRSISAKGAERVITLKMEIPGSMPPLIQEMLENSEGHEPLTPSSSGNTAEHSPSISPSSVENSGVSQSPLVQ

T3: RARγ (Homo sapiens, UniProt P13631)
T3 construct: expressed in transfected cells; host or cells: P19 embryonal carcinoma cells
T3 sequence (P13631 1-454): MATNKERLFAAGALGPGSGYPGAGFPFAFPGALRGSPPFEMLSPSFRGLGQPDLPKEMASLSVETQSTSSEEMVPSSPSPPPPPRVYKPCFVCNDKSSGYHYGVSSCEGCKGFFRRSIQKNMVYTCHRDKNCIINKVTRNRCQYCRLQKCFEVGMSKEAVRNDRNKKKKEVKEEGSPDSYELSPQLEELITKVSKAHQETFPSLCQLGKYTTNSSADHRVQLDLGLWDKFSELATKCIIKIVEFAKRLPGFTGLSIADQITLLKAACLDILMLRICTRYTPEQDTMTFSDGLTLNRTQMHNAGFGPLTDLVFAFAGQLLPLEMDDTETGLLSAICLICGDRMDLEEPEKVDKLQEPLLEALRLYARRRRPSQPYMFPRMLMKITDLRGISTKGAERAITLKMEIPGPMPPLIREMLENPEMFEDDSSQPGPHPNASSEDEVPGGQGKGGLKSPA

B1: Noggin: purified Xenopus noggin protein, secreted inhibitor of BMP-2 and -4 (protein, UniProt P49011 20-222, looked up)
Noggin: RIDQGGCQHYLHIRPAPSENLPLVDLIEHPDPIYDPKEKDLNETLLRTLMVGHFDPNFMATILPEERLGVEDLGELDLLLRQKPSGAMPAEIKGLEFYEGLQSKKHRLSKKLRRKLQMWLWSQTFCPVLYTWNDLGTRFWPRYVKVGSCYSKRSCSVPEGMVCKAAKSMHLTILRWRCQRRVQQKCAWITIQYPVISECKCSC

What was measured:
[1] = tested on: wild-type limb mesenchyme micromass cultures; assay: Cartilage nodule formation in wild-type limb bud micromass cultures (alcian blue staining); type: cell-based, murine
Method: Micromass cultures were prepared from murine E11.25 to E11.75 fore and hind limb buds as previously described with the following modifications (Cash et al. (1997) J. Cell Biol. 136, 445-457). After proteolytic digestion cells were filtered through a Cell Sieve ([…], Falcon) to obtain a single cell suspension. Culture media (40% Dulbecco's modified Eagle's medium, 60% F12 was supplemented with fetal bovine serum to 10%, Gibco-BRL) was changed daily. […] Addition/removal experiments included either adding or removing supplemented media on the indicated culture day, 24 hours after culture initiation was considered day 1. To detect transgene-expressing cells, cultures were fixed stained as previously described, with magenta-gal (BioSynth International Inc.) being substituted for X-gal. This was followed by alcian blue staining for cartilage-specific glycosaminoglycans. Alcian blue staining of magenta-gal stained cultures turned the red precipitate to a purple color, this is a result of incubating magenta-gal stained cells at pH 1. This double-staining technique enables transgene-expressing cells to be localized with respect to alcian blue stained cartilage nodules.

RARα = target: T1, RARα; assay: Transient transfection: inhibition of all-trans RA induction of RARE luciferase construct in P19 cells, RARα; type: cell-based; conditions: 1 μM AGN194301, 100 nM all-trans RA
Method: (§1) The ability of AGN194301 to inhibit all-trans RA induction of an RARE containing luciferase construct was performed in P19 embryonal carcinoma cells as previously described with some modification (Underhill et al. (1994) Mol. Endo. 8, 274-285). P19 cells were seeded at a density of 1.5×10^4 cells/well in 6 well plates. […] Following transfection cells were washed and fresh media was added that contained 1×10^−7 M all-trans RA and various amounts of AGN194301. Twenty-four hours later cell extracts were prepared, and luciferase and β-galactosidase activity measured. Luciferase activity was normalized with β-galactosidase activity to control for differences in transfection efficiency.
(§2) RAR activity as used herein refers to the level of RA-induced transcriptional activity of the RARs. Micromass cultures were treated with the RARα-specific antagonist AGN194301 to examine whether inhibition of RARα activity stimulated cartilage formation. Addition of 1 μM AGN194301 to wild-type micromass cultures lead to a dramatic increase in nodule number with no apparent increase in nodule size as compared to untreated control cultures (FIG. 5G, J, M). […] To confirm that the concentrations utilized in these experiments inhibited RARα activity specifically, the level of RARα, RARβ and RARγ mediated RARE activation was measured with 100 nM all-trans RA in the presence of various concentrations of antagonist. […]

RARβ = target: T2, RARβ; assay: Transient transfection: inhibition of all-trans RA induction of RARE luciferase construct in P19 cells, RARβ; type: cell-based; conditions: 1 μM AGN194301, 100 nM all-trans RA
Method: as §1, §2

RARγ = target: T3, RARγ; assay: Transient transfection: inhibition of all-trans RA induction of RARE luciferase construct in P19 cells, RARγ; type: cell-based; conditions: 1 μM AGN194301, 100 nM all-trans RA
Method: as §1, §2

| Molecule | rescue of cartilage nodule formation in Noggin-treated cultures ([1]; 1 μM AGN194301 + 10 ng/ml Noggin, day 6) | increase in number of cartilage nodules (more nodules than untreated cultures) ([1]; 1 μM AGN194301, 8 days in culture, wild-type cultures, FIG. 5M) [%] | RARα signaling (RARE activation) remaining (RARα) | RARβ signaling (RARE activation) remaining (RARβ) | RARγ signaling (RARE activation) remaining (RARγ) | reduction of cartilage nodule formation in comparison to untreated controls ([1]; 10 ng/ml Noggin, wild-type cultures) [%] | number of cartilage nodules relative to control cultures ([1]; Noggin alone 10 ng/ml, FIG. 6d) |
| --- | --- | --- | --- | --- | --- | --- | --- |
| Cc1ccc(C2=CC(C)(C)Oc3c(Br)cc(C(=O)Nc4ccc(C(=O)O)c(F)c4)cc32)cc1 [AGN194301, 2-Fluoro-4-[(1-(8-bromo-2,2-dimethyl-4-(4-methylphenyl)-2-H-chromen-6-yl)-methanoyl)-amino]-benzoic acid] | resembled untreated cultures; also recorded: comparable to that of control cultures | 60 | ~0.3 % of controls | ~18 % of controls | ~26 % of controls | – | – |
| B1 | – | – | – | – | – | ~84 | ~10 % of that of control cultures |
